Results on 11 molecules are retold here after patent US9024041B2, “P38 MAP kinase inhibitors” (Respivert Ltd., priority 2010, dated 2015).

The subject of data set [1] is Differentiated U937 cells. Put plainly: MTT assay: cell viability on exposure to test compounds. The data set is classed as cell-based, human. The conditions noted are these: percentage loss of cell viability vs vehicle, 1 μg/mL; for MTT Assay (Viability) 4 h d-U937: 5% FCS; for MTT Assay (Viability) 24 h d-U937: 10% FCS. A digest of the protocol: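 Differentiated U937 cells were pre-incubated with compound for either 4 h in 5% FCS or 24 h in 10% FCS, then given MTT for 1 h. Formazan was dissolved in DMSO and read at 550 nm. Viability loss is expressed as % versus 0.5% DMSO vehicle, so an apparent gain appears as a negative value.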

Data set [2] addresses T1, p38 MAPKα isoform (MAPK14: Invitrogen) (Homo sapiens, UniProt Q16539).
T1 construct: purchased Invitrogen
Put plainly: p38 MAPKα enzyme inhibition assay (FRET, Z-LYTE, via MAPKAP-K2 activation). It counts as biochemical. The conditions noted are these: 2 hr pre-incubation, ATP 10.0 μM; read-out: Enzyme Inhibition IC50 p38α.
Description: The enzyme inhibitory activities of compounds disclosed herein were determined by fluorescence resonance energy transfer (FRET) using synthetic peptides labelled with both donor and acceptor fluorophores (Z-LYTE, Invitrogen Ltd., Paisley, UK). Recombinant, phosphorylated p38 MAPKγ (MAPK12:Invitrogen) was diluted in HEPES buffer, mixed with the test compound at the desired final concentrations and incubated for 2 hr at RT. The FRET peptide (2 μM) and ATP (100 μM) were added to the enzyme/compound mixture and incubated for 1 hr. Development reagent (protease) was added for 1 hr prior to detection in a fluorescence microplate reader (Varioskan® Flash, ThermoFisher Scientific). The site-specific protease cleaves non-phosphorylated peptide only and eliminates the FRET signal. Phosphorylation levels of each reaction were calculated using the ratio of coumarin emission (donor) over fluorescein emission (acceptor) for which high ratios indicate high phosphorylation and low ratios indicate low phosphorylation levels.
For the p38 MAPKα isoform (MAPK14: Invitrogen), enzyme activity was evaluated indirectly by determining the level of activation/phosphorylation of the down-stream molecule, MAPKAP-K2. The p38 MAPKα protein was mixed with the test compound for 2 hr at RT. […] Development reagent was then added and the mixture incubated for 1 hr before detection by fluorescence completed the assay protocol.

Data set [3] addresses T2, Recombinant, phosphorylated p38 MAPKγ (MAPK12:Invitrogen) (Homo sapiens, UniProt P53778).
T2 construct: purchased Invitrogen
T2 sequence (P53778 1-367): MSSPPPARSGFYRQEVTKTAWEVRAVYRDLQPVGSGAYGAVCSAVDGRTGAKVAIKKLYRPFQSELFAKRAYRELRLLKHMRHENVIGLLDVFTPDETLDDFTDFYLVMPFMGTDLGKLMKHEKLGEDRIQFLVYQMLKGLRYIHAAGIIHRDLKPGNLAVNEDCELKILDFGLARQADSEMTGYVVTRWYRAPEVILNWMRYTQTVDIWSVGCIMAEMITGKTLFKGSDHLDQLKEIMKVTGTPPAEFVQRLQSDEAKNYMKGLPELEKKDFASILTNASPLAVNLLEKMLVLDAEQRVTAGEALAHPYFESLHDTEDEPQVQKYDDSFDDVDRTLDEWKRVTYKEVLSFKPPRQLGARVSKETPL
Description: p38 MAPKγ enzyme inhibition assay (FRET, Z-LYTE). It counts as biochemical. The conditions noted are these: 2 hr pre-incubation, ATP 100 μM; read-out: Enzyme Inhibition IC50 p38γ.

For data set [4], the system named is LPS-induced IL-8 release in d-U937 cells. Put plainly: LPS-induced IL-8 release in d-U937 cells. Particulars: Homo sapiens, dU937, 0.1 μg/mL LPS, 4 hr. It counts as cell-based. An outline of the steps: (§1)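 U937 cells differentiated with PMA (100 ng/mL, 48–72 hr), pre-incubated with compound 2 hr, then stimulated with 0.1 μg/mL E. coli O111:B4 LPS for 4 hr. Supernatant TNFα and IL-8 measured by sandwich ELISA; REC50 (TNFα) and IC50 (IL-8 inhibition vs vehicle) taken from concentration-response curves.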

In data set [5] the test system is LPS-induced TNFα release in d-U937 cells. Put plainly: LPS-induced TNFα release in d-U937 cells. It counts as cell-based. The conditions noted are these: Homo sapiens, dU937, 4 h; read-out: LPS/TNFα REC50 d-U937. An outline of the steps: as §1
In data set [6] the test system is LPS-induced TNFα release in THP-1 cells. Description: LPS-induced TNFα release in THP-1 cells. The data set is classed as cell-based. The conditions noted are these: Homo sapiens, 3 μg/mL LPS, 4 hr. A digest of the protocol:
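Human monocytic cells were stimulated with 3 μg/mL E. coli LPS for 4 hr. Supernatant TNFα was measured by sandwich ELISA. Inhibition was taken relative to vehicle control, and IC50 derived from the concentration-response curve.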

Data set [7] deals with Poly I:C-induced ICAM-1 expression in BEAS2B cells. Description: Poly I:C-induced ICAM-1 induction in BEAS2B cells. The data set is classed as cell-based. Particulars: Homo sapiens, BEAS-2B, poly I:C 1 μg/mL, 18 hr, read-out: PolyI:C/ICAM1 IC50 BEAS2B. A digest of the protocol:
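Human bronchial epithelial BEAS2B cells were pre-incubated with compound for 2 h, then transfected with poly I:C at 1 μg/mL. Surface ICAM-1 was measured 18 h later by cell-based ELISA (OD450–655), normalised to crystal-violet cell number (OD595). IC50 was taken from the concentration–response curve against vehicle.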

pEC50, pIC50: −log10 of the molar value.

T1 sequence (Q16539 whole entry, canonical isoform): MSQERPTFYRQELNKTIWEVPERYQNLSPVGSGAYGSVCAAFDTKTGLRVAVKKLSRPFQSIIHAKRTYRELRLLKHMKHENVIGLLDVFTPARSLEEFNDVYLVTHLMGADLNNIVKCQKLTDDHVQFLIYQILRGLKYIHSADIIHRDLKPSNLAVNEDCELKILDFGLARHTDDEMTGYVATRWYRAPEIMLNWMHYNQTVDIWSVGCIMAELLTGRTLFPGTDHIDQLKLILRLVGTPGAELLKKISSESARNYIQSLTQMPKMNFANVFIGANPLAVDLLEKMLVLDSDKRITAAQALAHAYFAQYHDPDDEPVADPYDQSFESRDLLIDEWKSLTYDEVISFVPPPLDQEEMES

As to `CNS(=O)(=O)Cc1ccc(-n2nc(C(C)(C)C)cc2NC(=O)Nc2ccc(Oc3ccnc(NC(=O)COC)c3)c3ccccc23)cc1` [Example 31, N-(4-(4-(3-(3-tert-butyl-1-(4-((N-methylsulfamoyl)methyl)phenyl)-1H-pyrazol-5-yl)ureido)naphthalen-1-yloxy)pyridin-2-yl)-2-methoxyacetamide], in data set [1], the “MTT Assay (Viability) 4 h d-U937” value was 1.7%. The “MTT Assay (Viability) 24 h d-U937” value in data set [1] was found to be 50.1%. Also, the pIC50 was 7.77 in data set [2]; 7.11 in data set [3]; 7.71 in data set [4]; 9.00 in data set [6]; less than 6.83 in data set [7]. In data set [5], the pEC50 is 9.10.

Consider `COc1ccc(-n2nc(C(C)(C)C)cc2NC(=O)Nc2ccc(Oc3ccnc(NC(=O)N4CCN(C)CC4)c3)c3ccccc23)cc1` [Example 10, N-(4-(4-(3-(3-tert-Butyl-1-(4-methoxyphenyl)-1H-pyrazol-5-yl)ureido)naphthalen-1-yloxy)pyridin-2-yl)-4-methyl piperazine-1-carboxamide], for which, in data set [1], the “MTT Assay (Viability) 4 h d-U937” value is given as −12.5%. In addition, the “MTT Assay (Viability) 24 h d-U937” value in data set [1] is reported as −21.2%. Also, the pIC50 in data set [2] was 8.33; in data set [3], 6.98; in data set [4], 8.64; in data set [6], 8.80; in data set [7] it was 8.46. In addition, the pEC50 in data set [5] was 8.82.

As to `COCC(=O)Nc1cc(COc2ccc(NC(=O)Nc3cc(C(C)(C)C)nn3-c3ccc(C)cc3)c(C)c2C)ccn1` [Example 58, N-(4-((4-(3-(3-tert-butyl-1-(p-tolyl)-1H-pyrazol-5-yl)ureido)-2,3-dimethylphenoxy)methyl)pyridin-2-yl)-2-methoxyacetamide], the “MTT Assay (Viability) 4 h d-U937” value in data set [1] is recorded as −2.8%. Moreover, the “MTT Assay (Viability) 24 h d-U937” value in data set [1] is on record as 12.0%. For the same molecule, the pIC50 in data set [2] was 7.97; in data set [3], 6.48; in data set [4], 7.34; in data set [6], 6.41; in data set [7] it was 6.32. Further, in data set [5], the pEC50 was 7.98.

As to `CNC(=O)Nc1cc(COc2ccc(NC(=O)Nc3cc(C(C)(C)C)nn3-c3ccc(OC)nc3)c(C)c2C)ccn1` [Example 63, 1-(4-((4-(3-(3-tert-butyl-1-(6-methoxypyridin-3-yl)-1H-pyrazol-5-yl)ureido)-2,3-dimethylphenoxy)methyl)pyridin-2-yl)-3-methylurea], the “MTT Assay (Viability) 4 h d-U937” value in data set [1] was found to be 32.5%. Also, in data set [1], the “MTT Assay (Viability) 24 h d-U937” value is 21.2%. For the same molecule, the pIC50 was 7.79 in data set [2]; less than 4.76 in data set [3]; 6.90 in data set [4]; 7.55 in data set [6]; 6.75 in data set [7]. Also, the pEC50 in data set [5] is 7.58.

On to `CNC(=O)Nc1cc(Oc2ccc(NC(=O)Nc3cc(C(C)(C)C)nn3-c3ccc(S(C)(=O)=O)cc3)c3ccccc23)ccn1` [Example 46, 1-(3-tert-butyl-1-(4-(methylsulfonyl)phenyl)-1H-pyrazol-5-yl)-3-(4-((2-(3-methylureido)pyridin-4-yl)oxy)naphthalen-1-yl)urea], for which, in data set [1], the “MTT Assay (Viability) 4 h d-U937” value is −12.6%. Moreover, the “MTT Assay (Viability) 24 h d-U937” value in data set [1] was −47.9%. In addition, the pIC50 in data set [2] was 7.44; in data set [3] it was 6.98; in data set [4] it was 8.70; in data set [6] it was 8.64; in data set [7], 7.39. For the same molecule, the pEC50 in data set [5] was 9.40.

On to `CNC(=O)Nc1cc(Oc2ccc(NC(=O)Nc3cc(C(C)(C)C)nn3-c3ccc(O)nc3)c(C)c2C)ccn1` [Example 62, 1-(4-(4-(3-(3-tert-butyl-1-(6-hydroxypyridin-3-yl)-1H-pyrazol-5-yl)ureido)-2,3-dimethylphenoxy)pyridin-2-yl)-3-methylurea], for which the “MTT Assay (Viability) 4 h d-U937” value in data set [1] is −1.1%. Also, the “MTT Assay (Viability) 24 h d-U937” value in data set [1] is on record as −2.6%. For the same molecule, the pIC50 in data set [2] is 7.83; in data set [3], 7.69; in data set [4], 7.84; in data set [6], 8.59; in data set [7], 7.61. In data set [5], the pEC50 was 8.60.

Consider `COCC(=O)Nc1cc(Oc2ccc(NC(=O)Nc3cc(C(C)(C)C)nn3-c3ccc(C)nc3)c3ccccc23)ccn1` [Example 57, N-(4-(4-(3-(3-tert-butyl-1-(6-methylpyridin-3-yl)-1H-pyrazol-5-yl)ureido)naphthalen-1-yloxy)pyridin-2-yl)-2-methoxyacetamide], for which the “MTT Assay (Viability) 4 h d-U937” value in data set [1] is recorded as −3.4%. In data set [1], the “MTT Assay (Viability) 24 h d-U937” value was found to be 76.0%. The pIC50 in data set [2] is greater than 9.70; in data set [3], 6.61; in data set [4] it was 7.76; in data set [6] it was 8.80; in data set [7] it was 8.07. The pEC50 in data set [5] was 9.52.

`COc1ccc(-n2nc(C(C)(C)C)cc2NC(=O)Nc2ccc(Oc3ccnc(NC(=O)N4CCOCC4)c3)c3ccccc23)cc1` [Example 9, N-(4-((4-(3-(3-tert-Butyl-1-(4-methoxyphenyl)-1H-pyrazol-5-yl)ureido)naphthalen-1-yl)oxy)pyridin-2-yl)morpholine-4-carboxamide]: the “MTT Assay (Viability) 4 h d-U937” value in data set [1] is −5.7%. Besides, the “MTT Assay (Viability) 24 h d-U937” value in data set [1] was found to be 18.6%. In addition, the pIC50 in data set [2] is 8.57; in data set [3], 6.69; in data set [4], 8.85; in data set [6], 9.30; in data set [7], 8.68. Also, in data set [5], the pEC50 is 9.22.

On to `CSc1ccc(-n2nc(C(C)(C)C)cc2NC(=O)Nc2ccc(Oc3ccnc(NC(=O)N4CCCC4)c3)c3ccccc23)cc1` [Example 14, N-(4-(4-(3-(3-tert-Butyl-1-(4-(methylthio)phenyl)-1H-pyrazol-5-yl)ureido)naphthalen-1-yloxy)pyridin-2-yl)pyrrolidine-1-carboxamide], for which the “MTT Assay (Viability) 4 h d-U937” value in data set [1] is −0.4%. Further, the “MTT Assay (Viability) 24 h d-U937” value in data set [1] is −50.0%. For the same molecule, the pIC50 was 7.77 in data set [2]; 6.40 in data set [3]; 8.14 in data set [4]; 8.49 in data set [6]; 8.72 in data set [7]. In data set [5], the pEC50 was 9.22.

`COCC(=O)Nc1cc(Oc2ccc(NC(=O)Nc3cc(C(C)(C)C)nn3-c3ccc(OC)c(Cl)c3)c3ccccc23)ccn1` [Example 54, N-(4-(4-(3-(3-tert-butyl-1-(3-chloro-4-methoxyphenyl)-1H-pyrazol-5-yl)ureido)naphthalen-1-yloxy)pyridin-2-yl)-2-methoxyacetamide]: in data set [1], the “MTT Assay (Viability) 4 h d-U937” value turned out to be 0.1%. The “MTT Assay (Viability) 24 h d-U937” value in data set [1] was −7.5%. In addition, the pIC50 in data set [2] was 8.04; in data set [3] it was 6.70; in data set [4] it was 8.57; in data set [6], 8.89; in data set [7] it was 9.15. Also, the pEC50 in data set [5] is 9.70.

Turning to `COCC(=O)Nc1cc(Oc2ccc(NC(=O)Nc3cc(C(C)(C)C)nn3-c3ccc(SC)cc3)c3ccccc23)ccn1` [Example 44, N-(4-(4-(3-(3-tert-butyl-1-(4-(methylthio)phenyl)-1H-pyrazol-5-yl)ureido)naphthalen-1-yloxy)pyridin-2-yl)-2-methoxyacetamide], the “MTT Assay (Viability) 4 h d-U937” value in data set [1] was −4.0%. In addition, the “MTT Assay (Viability) 24 h d-U937” value in data set [1] is listed as −16.4%. For the same molecule, the pIC50 in data set [2] is 7.82; in data set [3], 6.71; in data set [4] it was 8.23; in data set [6] it was 8.92; in data set [7] it was 8.12. In addition, in data set [5], the pEC50 was 10.00.
